Reference: ChEMBL document CHEMBL3272229, “Molecular properties of the adrenergic alpha receptor. 2. Optimum covalent inhibition by two different prototypes of polyamine disulfides” (J Med Chem, 1978)
Active and inactive are the calls of the source. No cut-off for these calls is given here.

Key:
[1] = target: T1, Adrenergic receptor alpha (Rattus norvegicus) (UniProt P15823+P23944+P43140+P22086+P19328+P22909); assay: Irreversible inhibition of alpha adrenergic receptor in rat vas deferens assessed as inhibition of NE-induced contractions at 2 x 10' -5 M after 30 mins relative to [N,N'-bis(o-methoxybenzylamino-n-hexyl)cystamine; type: tissue-based
[2] = target: T1, Adrenergic receptor alpha (Rattus norvegicus); assay: Irreversible inhibition of alpha adrenergic receptor in rat vas deferens assessed as inhibition of NE-induced contractions at 2 x 10' -5 M after 30 mins relative to N1,N1'-(2,2'-disulfanediylbis(ethane-2,1-diyl))dioctane-1,8-diamine tetrahydrochloride; type: tissue-based
[3] = target: T1, Adrenergic receptor alpha (Rattus norvegicus); assay: Irreversible inhibition of alpha adrenergic receptor in rat vas deferens assessed as inhibition of NE-induced contractions at <20 uM after 30 mins; type: tissue-based
Cavia porcellus [4] = species: Cavia porcellus; assay: Antagonist activity at alpha adrenergic receptor in guinea pig atrium assessed as reduction in tyramine-mediated ionotropic/chronotropic potency; type: tissue-based; conditions: Cardiac atrium
Cavia porcellus [5] = species: Cavia porcellus; assay: Antagonist activity at muscarinic receptor in guinea pig atrium assessed as reduction in butyrylcholine-induced response; type: tissue-based; conditions: Cardiac atrium
Cavia porcellus [6] = species: Cavia porcellus; assay: Antagonist activity at alpha adrenergic receptor in guinea pig atrium assessed as inhibition of 30 uM NE-induced contractions treated at 0.147 uM; type: tissue-based; conditions: Cardiac atrium
Cavia porcellus [7] = species: Cavia porcellus; assay: Potentiation of NE-mediated alpha adrenergic receptor activity in guinea pig atrium; type: tissue-based; conditions: Cardiac atrium
Cavia porcellus [8] = species: Cavia porcellus; assay: Antagonist activity at alpha adrenergic receptor in guinea pig atrium assessed as inhibition of 300 uM NE-induced contractions treated at 0.147 uM; type: tissue-based; conditions: Cardiac atrium
Cavia porcellus [9] = species: Cavia porcellus; assay: Effect on muscarinic receptor in guinea pig atrium assessed as reduction in carbachol-mediated ionotropic/chronotropic potency at 0.17 uM after 30 to 60 mins; type: tissue-based; set-up: scale not given: the % may be the effect or the level left; conditions: Cardiac atrium
Cavia porcellus [10] = species: Cavia porcellus; assay: Effect on muscarinic receptor in guinea pig atrium assessed as reduction in carbachol-mediated ionotropic/chronotropic potency at 10 uM after 17 mins; type: tissue-based; conditions: Cardiac atrium
Cavia porcellus [11] = species: Cavia porcellus; assay: Antagonist activity at muscarinic receptor in guinea pig atrium assessed as reduction in butyrylcholine-induced response at 10 to 30 uM; type: tissue-based; conditions: Cardiac atrium
Cavia porcellus [12] = species: Cavia porcellus; assay: Antagonist activity at alpha adrenergic receptor in guinea pig atrium assessed as inhibition of 30 uM NE-induced contractions treated at 3 uM for 30 mins followed by washout; type: tissue-based; conditions: Cardiac atrium
Cavia porcellus [13] = species: Cavia porcellus; assay: Potentiation of NE-mediated alpha adrenergic receptor activity in guinea pig atrium at 10 to 30 uM; type: tissue-based; conditions: Cardiac atrium
Cavia porcellus [14] = species: Cavia porcellus; assay: Effect on muscarinic acetylcholine receptor in guinea pig ileum assessed as reduction in acetylcholine-induced contractile response at 7 uM after 20 to 40 mins; type: tissue-based; set-up: scale not given: the % may be the effect or the level left
Cavia porcellus [15] = species: Cavia porcellus; assay: Antagonist activity at alpha adrenergic receptor in guinea pig atrium assessed as reduction in tyramine-mediated ionotropic/chronotropic potency at 10 to 30 uM; type: tissue-based; conditions: Cardiac atrium
Cavia porcellus [16] = species: Cavia porcellus; assay: Effect on muscarinic receptor in guinea pig atrium assessed as reduction in carbachol-mediated ionotropic/chronotropic potency at 0.24 uM after 30 to 60 mins; type: tissue-based; set-up: scale not given: the % may be the effect or the level left; conditions: Cardiac atrium
Cavia porcellus [17] = species: Cavia porcellus; assay: Effect on muscarinic acetylcholine receptor in guinea pig ileum assessed as reduction in acetylcholine-induced contractile response treated at 30 uM for 40 mins measured after 20 mins post washout; type: tissue-based
Oryctolagus cuniculus [18] = species: Oryctolagus cuniculus; assay: Effect on 5-HT receptor in potassium-contracted rabbit aortic strip assessed as change in 5-HT-mediated response at 10 uM after 30 mins
Oryctolagus cuniculus [19] = species: Oryctolagus cuniculus; assay: Irreversible inhibition of alpha adrenergic receptor in rabbit aortic strip assessed as inhibition of NE-induced contractions at 1 to 3 uM after 18 hrs
Oryctolagus cuniculus [20] = species: Oryctolagus cuniculus; assay: Irreversible inhibition of alpha adrenergic receptor in rabbit aortic strip assessed as inhibition of NE-induced contractions at 0.3 uM after 90 mins
Cavia porcellus [21] = species: Cavia porcellus; assay: Effect on muscarinic receptor in guinea pig atrium assessed as reduction in carbachol-mediated ionotropic/chronotropic potency at 30 uM after 26 mins; type: tissue-based; conditions: Cardiac atrium
Oryctolagus cuniculus [22] = species: Oryctolagus cuniculus; assay: Effect on histamine receptor in potassium-contracted rabbit aortic strip assessed as change in histamine-mediated response at 10 uM after 30 mins
Oryctolagus cuniculus [23] = species: Oryctolagus cuniculus; assay: Effect on beta adrenergic receptor in potassium-contracted rabbit aortic strip assessed as change in isoprenaline-mediated response at 10 uM after 30 mins

## COc1ccc(CNCCCCCCNCCSSCCNCCCCCCNCc2ccc(OC)cc2)cc1
[1]
  inhibition: 81%
[2]
  inhibition: 81%

## Clc1ccccc1CNCCCCCCCNCCSSCCNCCCCCCCNCc1ccccc1Cl
[1]
  inhibition: 36%
[2]
  inhibition: 36%

## NCCCCCCCCCCNCCSSCCNCCCCCCCCCCN
[1]
  inhibition: 56%
[2]
  inhibition: 56%

## Cc1ccccc1CNCCCCCCNCCSSCCNCCCCCCNCc1ccccc1C
[1]
  inhibition: 69%
[2]
  inhibition: 69%

## COc1ccccc1CNCCCCCNCCSSCCNCCCCCNCc1ccccc1OC
[1]
  inhibition: 59%
[2]
  inhibition: 59%

## c1ccc(CNCCCCCCNCCSSCCNCCCCCCNCc2ccccc2)cc1
[1]
  inhibition: 90%
[2]
  inhibition: 90%

## COc1ccccc1CNCCCCCCCCNCCSSCCNCCCCCCCCNCc1ccccc1OC
[1]
  inhibition: 41%
[2]
  inhibition: 41%

## COc1ccc(CNCCCCCCNCCSSCCNCCCCCCNCc2ccc(OC)c(OC)c2)cc1OC
[1]
  inhibition: 24%
[2]
  inhibition: 24%

## NCCCCCCNCCSSCCNCCCCCCN
[1]
  inhibition: 27%
[2]
  inhibition: 27%

## Oc1ccc(CNCCCCCCNCCSSCCNCCCCCCNCc2ccc(O)c(O)c2)cc1O
[1]
  inhibition: 98%
[2]
  inhibition: 98%

## COc1ccc(OC)c(CNCCCCCCNCCSSCCNCCCCCCNCc2cc(OC)ccc2OC)c1
[1]
  inhibition: 76%
[2]
  inhibition: 76%

## NCCCCCCCNCCSSCCNCCCCCCCN
[1]
  inhibition: 63%
[2]
  inhibition: 63%

## COc1ccccc1CNCCCCCCCNCCSSCCNCCCCCCCNCc1ccccc1OC
[1]
  inhibition: 71%
[2]
  inhibition: 71%

## NCCCCCCCCNCCSSCCNCCCCCCCCN
[3]
  inhibition: Active
[1]
  inhibition: 100%

## c1ccc(CNCCCCCCCNCCSSCCNCCCCCCCNCc2ccccc2)cc1
[1]
  inhibition: 58%
[2]
  inhibition: 58%

## CC(COc1ccccc1)N(CCCl)Cc1ccccc1 (stereo not drawn)
Cavia porcellus [4]
  inhibition: Active
Cavia porcellus [5]
  inhibition: Active
Cavia porcellus [6]
  inhibition: Active
Cavia porcellus [7]
  Activity: Active
Cavia porcellus [8]
  inhibition: Active

## COc1cccc(CNCCCCCCNCCSSCCNCCCCCCNCc2cccc(OC)c2)c1
[1]
  inhibition: 72%
[2]
  inhibition: 72%

## NCCCCCCCCCNCCSSCCNCCCCCCCCCN
[1]
  inhibition: 92%
[2]
  inhibition: 92%

## Clc1ccccc1CNCCCCCCNCCSSCCNCCCCCCNCc1ccccc1Cl
[1]
  inhibition: 44%
[2]
  inhibition: 44%

## COc1ccc(CNCCCCCCNCCSSCCNCCCCCCNCc2ccc(OC)cc2OC)c(OC)c1
[1]
  inhibition: 26%
[2]
  inhibition: 26%

## Cc1ccccc1CNCCCCCCCNCCSSCCNCCCCCCCNCc1ccccc1C
[1]
  inhibition: 56%
[2]
  inhibition: 56%

## Cc1ccccc1CNCCCCCCCCNCCSSCCNCCCCCCCCNCc1ccccc1C
[1]
  inhibition: 49%
[2]
  inhibition: 49%

## COc1cccc(CNCCCCCCNCCSSCCNCCCCCCNCc2cccc(OC)c2OC)c1OC
[1]
  inhibition: 26%
[2]
  inhibition: 26%

## COc1ccccc1CNCCCCCCNCCCCCCNCCCCCCNCc1ccccc1OC
Cavia porcellus [9]
  Activity: 50%
Cavia porcellus [10]
  Activity: inactive

## COc1ccccc1CNCCCCCCNCCSSCCNCCCCCCNCc1ccccc1OC
Cavia porcellus [11]
  inhibition: inactive
Cavia porcellus [12]
  inhibition: inactive
Cavia porcellus [13]
  Activity: inactive
Cavia porcellus [14]
  Activity: 50%
Cavia porcellus [15]
  inhibition: inactive
Cavia porcellus [16]
  Activity: 50%
Cavia porcellus [17]
  Activity: inactive
Oryctolagus cuniculus [18]
  Activity: inactive
Oryctolagus cuniculus [19]
  inhibition: Active
Oryctolagus cuniculus [20]
  inhibition: Active
Cavia porcellus [21]
  Activity: inactive
[2]
  inhibition: 100%
Oryctolagus cuniculus [22]
  Activity: inactive
Oryctolagus cuniculus [23]
  Activity: inactive

## COc1cc(CNCCCCCCNCCSSCCNCCCCCCNCc2cc(OC)cc(OC)c2)cc(OC)c1
[1]
  inhibition: 41%
[2]
  inhibition: 41%

## CN(CCCCCCCCN)CCSSCCN(C)CCCCCCCCN
[1]
  inhibition: 90%
[2]
  inhibition: 90%

## COc1ccccc1CNCCCCCCN(C)CCSSCCN(C)CCCCCCNCc1ccccc1OC
[1]
  inhibition: 48%
[2]
  inhibition: 48%

## CCOc1ccccc1CNCCCCCCNCCSSCCNCCCCCCNCc1ccccc1OCC
[1]
  inhibition: 81%
[2]
  inhibition: 81%

## C=CCOc1ccccc1CNCCCCCCNCCSSCCNCCCCCCNCc1ccccc1OCC=C
[1]
  inhibition: 71%
[2]
  inhibition: 71%

## Clc1cccc(Cl)c1CNCCCCCCCNCCSSCCNCCCCCCCNCc1c(Cl)cccc1Cl
[1]
  inhibition: 39%
[2]
  inhibition: 39%

## Clc1cccc(Cl)c1CNCCCCCCNCCSSCCNCCCCCCNCc1c(Cl)cccc1Cl
[1]
  inhibition: 40%
[2]
  inhibition: 40%

## NCCCCCNCCSSCCNCCCCCN
[1]
  inhibition: 10%
[2]
  inhibition: 10%

## NCCCCCCCCCCCCNCCSSCCNCCCCCCCCCCCCN
[1]
  inhibition: 24%
[2]
  inhibition: 24%
